Patent US20210393586A1, “Compounds for Use in the Treatment of Bacterial Infections” (Universität Konstanz, priority 2018, published 2021)

Key:
[1] = tested on: quinolone and phenazine production of P. aeruginosa PAO1; assay: Quinolone and phenazine inhibition in P. aeruginosa PAO1 cultures, LC-MS/MS of supernatants; type: cell-based, Pseudomonas aeruginosa
Description: (§1) A LC-MS/MS method was established using characteristic mass transitions for quantitative analysis of metabolites in the supernatants of P. aeruginosa (Table 1, FIGS. 13 to 15). A library of phenazines and synthetic AQs and AQNOs served as standards (Szamosvári, D.; Böttcher, T., Angew Chem Int Ed Engl 2017, 56 (25), 7271-7275). There were also analyzed phenazines, including phenazine-1-carboxamide (PHZ-CA), 1-hydroxyphenazine (1-OH-PHZ), and pyocyanin (PYO), which are produced as virulence factors partially under control of the PQS quorum sensing system (FIG. 16a).
(§2) Ultra-high performance liquid chromatography was performed on a Dionex Ultimate 3000 UHPLC (Thermo Fisher Scientific, Waltham, Mass.) using a Nucleodur C18 Gravity-SB 150×2 mm, 3 μm column (Macherey-Nagel). The flow rate was 0.5 mL/min and the columns temperature was held at 40° C. The injection volume was 5 μL using pick up injection mode. Eluent A was 0.1% formic acid in water and eluent B was acetonitrile. The gradient was 20-100% B in 10 min, 100% B for 2 min, 100-20% B in 1 min and 20% B for 2 min. MS/MS analysis was performed by a Finnigan™ TSQ® Quantum (Thermo electron corporation) mass spectrometer in the SRM (Selected Reaction Monitoring) scan mode. As ion source a heated-electrospray ionization (HESI-II probe, Thermo scientific) was used. In the optimized conditions the ion spray voltage was 3500 V, vaporizer temperature 300° C., capillary temperature 380° C., sheath gas pressure 60 psi, ion sweep gas pressure 2 psi, aux gas 10 psi. The tube lens offset was 80 V and skimmer offset 0. Data were acquired in a mass range of m/z 130-350, and MS/MS acquisition of all compounds was performed in positive mode and fixed collision energy of 30 eV. Dwell time was 0.050 sec for all compounds.
The software Quan Browser Thermo Xcalibur 3.1.66.10 was used for quantitative analysis. The standard peak area of the product ions was fitted by linear regression versus the known concentrations to generate a standard curve.
Cultures of P. aeruginosa strains PAO1 and PA14 were incubated with different concentrations of the compound represented by Formula (2) for 24 h and extracted culture supernatants were used for LC-MS/MS analysis.
10 μL of a respective DMSO stock solution of compound represented by Formula (2) or 10 μL DMSO as vehicle control (0.33% final DMSO concentration) was added to 3 mL LB medium in 15 mL polypropylene centrifuge tubes with screw caps (VWR) to obtain final concentrations of 10, 50 and 100 μM. Afterwards 10 μL of a P. aeruginosa PAO1 or PA14 overnight culture was added. The caps of the sample tubes were slightly opened and fixed in a defined position by tape to ensure equal oxygen delivery to all samples. […] (180 rpm). Afterwards, the samples were centrifuged and the supernatants sterile filtered. The inhibition assay was performed in 3-4 biological replicates.
500 μL of sterile supernatant was transferred in 1.5 mL glass vials, 500 μL chloroform was added and vortexed thoroughly. Then, 200 μL of the organic layer was transferred in a clean 1.5 mL glass vial and the solvent evaporated by a gentle stream of nitrogen. The extract was stored at −80° C. until measurement. For analysis, 50 μL acetonitrile/water (1:1) was added to each sample.
MeOH stock solutions of PQS, AQs, AQNOs and phenazines were prepared at 1 mg/mL in glass vials and stored at −80° C. A series of standard solutions was prepared freshly before LC-MS/MS analysis by serial dilutions of the stock solution of each analyte in acetonitrile/water (1:1).

P. aeruginosa PA01 = assay: Bacterial growth curve analysis, P. aeruginosa PAO1; type: cell-based, Pseudomonas aeruginosa; conditions: concentrations up to 100 μM, 27 h at 37° C.
Description: (§3) In a sterile 15 mL polypropylene centrifuge tubes with screw caps (Roth) 20 μL of a respective DMSO Stock of the compounds represented by Formulas (2) and (5), or 20 μL DMSO as vehicle control was added for 1% final DMSO concentration. Then, 2 mL of LB medium and 6 μL of an overnight culture of P. aeruginosa PA01 or PA14 was added per sample. The samples were incubated for 27 h at 37° C. (190 rpm). At indicated incubation times 50 μL LB medium and 50 μL of culture were transferred in a cuvette, mixed and the adsorption measured at 600 nm.

P. aeruginosa PA14 [2] = assay: Bacterial growth curve analysis, P. aeruginosa PA14; type: cell-based, Pseudomonas aeruginosa; conditions: concentrations up to 100 μM, 27 h at 37° C.
Description: as §3

[3] = tested on: quinolone and phenazine production of P. aeruginosa PA14; assay: Quinolone and phenazine inhibition in P. aeruginosa PA14 cultures, LC-MS/MS of supernatants; type: cell-based, Pseudomonas aeruginosa
Description: as §1, §2
The software Quan Browser Thermo Xcalibur 3.1.66.10 was used for quantitative analysis. The standard peak area of the product ions was fitted by linear regression versus the known concentrations to generate a standard curve. […]

[4] = tested on: HHQ production of P. aeruginosa PAO1; assay: 2-ABA feeding of P. aeruginosa PAO1, HHQ quantified by LC-MS/MS; type: cell-based, Pseudomonas aeruginosa; conditions: P. aeruginosa PAO1 grown with 50 μM compound, 2-ABA total 12 mM, 11 h at 37° C.
Description: 10 μL of a 5 mM stock of the compound represented by Formula (2) in DMSO or 10 μL of DMSO as vehicle control (1% final DMSO concentration) was added in 1 mL LB medium in 15 mL polypropylene centrifugal tubes. Then, 5 μL P. aeruginosa PAO1 overnight culture was added and grown at 37° C. (190 rpm). Due to the instability of 2-ABA, it was added in six portions. After several time points (6 h, 6.5 h, 7 h, 7.5 h, 8 h and 10 h) the cultures treated with the compound represented by Formula (2) were supplemented with 20 μL 100 mM 2-ABA stock in basic solution (1% NH4OH) or 20 μL basic solution (1% NH4OH) as vehicle control. To investigate the effect of basic solution, the DMSO containing control samples were supplemented with same amounts of basic solution compared to treated samples. The total amount of 2-ABA added to each sample was 12 mM and the pH of the cultures after addition of the total volume of basic solution was under pH 8. After 11 h cultures were centrifuged, supernatants sterile filtered and HHQ extracted and quantified by LC-MS/MS according to the previously described protocol.

P. aeruginosa PAO1 = assay: Minimum inhibitory concentration, P. aeruginosa PAO1; type: cell-based; conditions: Pseudomonas aeruginosa; P. aeruginosa PAO1, LB, 24 h at 37° C.
Description: (§4) An overnight culture of P. aeruginosa PAO1 or PA14 was diluted 1:1000 in LB media. Afterwards, 99 μL of bacterial suspension and 1 μL of a corresponding stock solution of the compound represented by Formula (2) in DMSO was added to each well of a sterile, round-bottom 96-well plate. The compound represented by Formula (2) was applied in final concentrations of 1000, 500, 100, 50, 10, 5, 1, 0.5, 0.1, 0.05 μM in triplicates. The plate was incubated for 24 h at 37° C. (180 rpm).

PqsD = molecular target: T1, PqsD (Pseudomonas aeruginosa, UniProt P20582); assay: Proteomic analysis of active site modification of PqsD after in situ inhibition; type: cell-based; conditions: PqsD inhibited in live E. coli cells, tryptic digest, LC-MS
T1 construct: expressed in transfected cells; host or cells: E. coli BL21 containing pDEST/pqsD, induced with anhydrotetracyclin
T1 sequence (P20582 whole entry): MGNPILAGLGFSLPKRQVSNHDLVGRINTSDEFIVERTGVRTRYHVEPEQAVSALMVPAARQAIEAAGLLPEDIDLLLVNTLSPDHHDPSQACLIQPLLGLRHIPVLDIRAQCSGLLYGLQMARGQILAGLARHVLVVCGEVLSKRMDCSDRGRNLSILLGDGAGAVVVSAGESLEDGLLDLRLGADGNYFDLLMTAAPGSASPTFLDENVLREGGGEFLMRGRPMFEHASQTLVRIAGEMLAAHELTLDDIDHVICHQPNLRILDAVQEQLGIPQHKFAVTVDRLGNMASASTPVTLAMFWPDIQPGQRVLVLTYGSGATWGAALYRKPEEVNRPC
Description: In situ labelling was performed, and 2×SDS loading buffer was added directly to the resulting lysates. After SDS-PAGE and Coomassie staining, the protein band corresponding to PqsD was cut out of the gel. Then, tryptic digestion, sample preparation and LC-MS analysis were performed: Coomassie gel bands were washed in MilliQ for 15 sec, bands cut as close as possible and placed in Eppendorf tubes. For reduction and alkylation, a solution of 10 mM DTT in 50 mM NH4CO3 was added and incubated for 60 min at 56° C. The DTT solution was removed and a solution of 50 mM iodoacetamide in 50 mM NH4CO3 was added and incubated for 60 min at room temperature (rt). In a final washing step, the gel pieces were washed with 100 μL MilliQ water and 100 μL 50 mM NH4CO3 solution, then the solution was removed, and the gel dehydrated with acetonitrile/MilliQ water (3:2). The washing step was repeated until the gel pieces turned colorless. Next, the dehydration solution was removed, and acetonitrile was added for 10 sec before drying on air until complete dryness. The gel pieces were incubated for […] on ice in a freshly prepared cold buffer containing trypsin (10.0 ng/μL) and 50 mM NH4CO3. […] The combined washes and elutions were dried via SpeedVac and analyzed by an Orbitrap Fusion with EASY-nLC1200 instrument.

P. aeruginosa PA14 [5] = assay: Minimum inhibitory concentration, P. aeruginosa PA14; type: cell-based; conditions: Pseudomonas aeruginosa; P. aeruginosa PA14, LB, 24 h at 37° C.
Description: as §4

Compound | inhibition of quinolone production ([1]; P. aeruginosa PAO1, 100 μM, 27 h at 37° C. (FIG. 20a)) | growth (OD 600 nm growth curve) (P. aeruginosa PA01) | growth (OD 600 nm growth curve) (P. aeruginosa PA14 [2]) | inhibition of quinolone production ([3]; 100 μM, 27 h at 37° C. (FIG. 20b)) | production of all major quorum sensing signals, PQS and the chain length congeners of HHQ ([1]; P. aeruginosa PAO1, between 50 μM and 100 μM, 24 h) | intensity of quinolones and phenazines (LC-MS/MS chromatograms) ([1]; P. aeruginosa PAO1, increasing concentrations 10, 50, 100 μM, 24 h) | IC50 ([1]; Pseudomonas aeruginosa, PAO1, 24 h, read-out: average IC50 for production of all major quorum sensing signals, PQS and the chain length congeners of HHQ) [µM] | production of quinolone N-oxide congeners incl. HQNO, NQNO and trans-Δ1-NQNO ([1]; dose response manner, 10, 50, 100 μM, strain not given, 24 h) | phenazine production (1-OH-PHZ, PHZ-CA, pyocyanin) ([1]; strongest for 1-OH-PHZ and weakest for pyocyanin, strain not given, 24 h) | HHQ production after external addition of 2-ABA to inhibited culture [4] | MIC (P. aeruginosa PAO1) [µM] | site of covalent binding in PqsD (six cysteines in total) (PqsD) | production of all major quorum sensing signals, PQS and the chain length congeners of HHQ ([3]; compared with PAO1 (complete inhibition between 50 μM and 100 μM), 24 h) | intensity of quinolones and phenazines (LC-MS/MS chromatograms) ([3]; increasing concentrations 10, 50, 100 μM, 24 h) | MIC (P. aeruginosa PA14 [5]) [µM]
O=C(CCl)c1cccc2cc[nH]c12 [Formula (5)] | observed | largely unaffected | largely unaffected | observed | – | – | – | – | – | – | – | – | – | – | –
Nc1ccccc1C(=O)CCl [Formula (2), 2′-amino-1-chloro-acetophenone] | – | largely unaffected | largely unaffected | – | completely inhibited | considerably decreased | < 10 | inhibited | down-regulation of phenazines | partially restored | > 1000 | only bound to the active site cysteine (Cys112) | slightly lesser degree | considerably decreased | > 1000
